Values of other authors as cited in US20060204445A1, “Cell scaffold matrices with image contrast agents” (priority 2005, published 2006).

Conditions: in vivo

## heparin
  normal half-life of heparin: 1 to 2 h
